The results in this text go back to US20230414626A1, “INDUCTION OF FERROPTOSIS FOR CANCER THERAPY” (Memorial Sloan Kettering Cancer Center, priority 2020, published 2023).

The subject of this experiment is PI3K-mutated BT474 breast cancer xenograft tumors. The experiment can be described thus: In vivo xenograft mouse model, GPX4-iKO BT474. As to conditions: nu/nu mice, CCI-779 2 mg/kg daily i.p., Dox diet induces GPX4 knockout. How it is done:
FIG. 6 A-F. Combination of mTORC1 inhibition with ferroptosis induction leads to tumor regression in vivo. (A) CRISPR/Cas9-mediated, Dox-induced GPX4 knockout (GPX4-iKO) in BT474 cells, monitored by western blot. (B) Images of resected tumors from mice xenografted with GPX4-iKO BT474 cells. Groups of mice were treated with CCI-779 and/or Dox as indicated (n=6 per group). See Methods for detail. (C) Representative haematoxylin and eosin (H&E) and immunostaining images of GPX4, Ki67, PTGS2 and pS235/236 S6, all counterstained with haematoxylin (blue), are shown from sections of xenografted tumors. Scale bar, 50 μm. (D) Growth curves of BT474 tumors of each group. […]
FIG. 13 A-E. Combination of mTORC1 inhibition with ferroptosis induction leads to tumor regression. […] (B) BT474 tumor volume was measured every day for each mouse. […] (E) PC-3 tumor volume was measured every day for each mouse. […]
17-β-estradiol 60-day release pellets were implanted subcutaneously into the left flank 7 days before tumor inoculation. […] Tumor growth was monitored regularly via external caliper measurements. […] The maximum width (X) and length (Y) of the tumor were measured every day and the volume (V) was calculated using the formula: V=(X2Y)/2. Tumor growth was monitored over time. For all experiments, mice were sacrificed at a pre-determined endpoint. […]

Turning to `CO[C@H]1C[C@@H]2CC[C@@H](C)[C@@](O)(O2)C(=O)C(=O)N2CCCC[C@H]2C(=O)O[C@H]([C@H](C)C[C@@H]2CC[C@@H](OC(=O)C(C)(CO)CO)[C@H](OC)C2)CC(=O)[C@H](C)/C=C(\C)[C@@H](O)[C@@H](OC)C(=O)[C@H](C)C[C@H](C)/C=C/C=C/C=C/1C` [CCI-779, Temsirolimus], the tumor growth result is listed as “decelerated tumor growth”.
